Test results: ChEMBL document CHEMBL1201862, “PubChem BioAssay data set” (2004)
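Protocol summary: plate cells (96-well), add compound at 5 concentrations, incubate 48 h, interpolate endpoints linearly. GI50 is the concentration that inhibits growth by half.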 Activity calls are given as the source filed them. Rule as the data show it: active = GI50 up to about 1.1 µM and inactive = higher.

Experiments:
Assay in all cases: NCI anticancer screen, dose series, 48 h
RPMI-8226 = test system: RPMI-8226
CCRF-CEM = test system: CCRF-CEM
A498 = test system: A498
HT-29 = test system: HT-29
EKVX = test system: EKVX
MDA-MB-231 = test system: MDA-MB-231
UACC-257 = test system: UACC-257
NCI/ADR-RES = test system: NCI/ADR-RES
HOP-62 = test system: HOP-62
COLO 205 = test system: COLO 205
SNB-75 = test system: SNB-75
KM12 = test system: KM12
NCI-H522 = test system: NCI-H522
LOX IMVI = test system: LOX IMVI
MDA-N = test system: MDA-N
Hs-578T = test system: Hs-578T
IGROV-1 = test system: IGROV-1
U-251 = test system: U-251
K562 = test system: K562
HOP-92 = test system: HOP-92

Row | Compound | GI50 (RPMI-8226) | GI50 (CCRF-CEM) | GI50 (A498) | GI50 (HT-29) | GI50 (EKVX) | GI50 (MDA-MB-231) | GI50 (UACC-257) | GI50 (NCI/ADR-RES) | GI50 (HOP-62) | GI50 (COLO 205) | GI50 (SNB-75) | GI50 (KM12) | GI50 (NCI-H522) | GI50 (LOX IMVI) | GI50 (MDA-N) | GI50 (Hs-578T) | GI50 (IGROV-1) | GI50 (U-251) | GI50 (K562) | GI50 (HOP-92)
1 | c1ccc(C2CC(NC3CCCCC3)=Nc3ccccc3N2)cc1 (stereo unspecified) | 34 µM (inactive) | 34.9 µM (inactive) | 18.8 µM (inactive) | 24.2 µM (inactive) | 54.8 µM (inactive) | 24.5 µM (inactive) | 47.5 µM (inactive) | > 100 µM (inactive) | > 100 µM (inactive) | 24.2 µM (inactive) | 16.4 µM (inactive) | 40.8 µM (inactive) | 22.8 µM (inactive) | 20.4 µM (inactive) | 75.9 µM (inactive) | 28.4 µM (inactive) | 27.7 µM (inactive) | 56.9 µM (inactive) | 19.3 µM (inactive) | –
2 | C=CCNc1nc2c(s1)C(=O)c1ccccc1C2=O | 3.12 µM (inactive) | – | 19.5 µM (inactive) | 21.8 µM (inactive) | 15.6 µM (inactive) | 10 µM (inactive) | 2.7 µM (inactive) | 15.4 µM (inactive) | 13.4 µM (inactive) | 20.1 µM (inactive) | 18.7 µM (inactive) | 13.8 µM (inactive) | 6.41 µM (inactive) | 4.31 µM (inactive) | 1.86 µM (inactive) | 32.1 µM (inactive) | 8.73 µM (inactive) | 7.55 µM (inactive) | 4.76 µM (inactive) | 9.31 µM (inactive)
3 | COc1cc2c3cc1Oc1c(OC)c(OC)cc4c1C(Cc1ccc(O)c(c1)Oc1ccc(cc1)CC3N(C)CC2)CN(C)C4 (stereo unspecified) | 13 µM (inactive) | 2.07 µM (inactive) | 16.9 µM (inactive) | 3.24 µM (inactive) | 19 µM (inactive) | 12.2 µM (inactive) | 13.5 µM (inactive) | 19.3 µM (inactive) | 20 µM (inactive) | 10 µM (inactive) | 14.2 µM (inactive) | 13.2 µM (inactive) | 12.5 µM (inactive) | – | 12.2 µM (inactive) | 15.5 µM (inactive) | 20.5 µM (inactive) | 12.3 µM (inactive) | 5.22 µM (inactive) | 16 µM (inactive)
4 | CS[C@]12[C@@H]3C(=O)N(C)C(=O)[C@@H]3[C@](C)(C(=O)N1C)C(=O)N2c1ccccc1 | > 100 µM (inactive) | > 100 µM (inactive) | > 100 µM (inactive) | > 100 µM (inactive) | > 100 µM (inactive) | > 100 µM (inactive) | > 100 µM (inactive) | > 100 µM (inactive) | > 100 µM (inactive) | > 100 µM (inactive) | > 100 µM (inactive) | > 100 µM (inactive) | > 100 µM (inactive) | > 100 µM (inactive) | > 100 µM (inactive) | > 100 µM (inactive) | > 100 µM (inactive) | > 100 µM (inactive) | – | > 100 µM (inactive)
5 | CCN(CC)c1ccc2cc(-c3nc4ccccc4n3C)c(=O)oc2c1 | 0.33 µM (active) | 0.154 µM (active) | 0.0163 µM (active) | 0.259 µM (active) | – | 0.889 µM (active) | 1.17 µM (inactive) | 0.135 µM (active) | 0.411 µM (active) | 0.315 µM (active) | 0.0177 µM (active) | 0.571 µM (active) | 0.205 µM (active) | 0.495 µM (active) | 0.0259 µM (active) | 0.269 µM (active) | 0.485 µM (active) | 0.352 µM (active) | 0.102 µM (active) | 0.873 µM (active)
6 | COc1cc(C=O)cc(/C=N/N=C/c2ccccc2O)c1O | 16.4 µM (inactive) | 8.85 µM (inactive) | > 100 µM (inactive) | 34.1 µM (inactive) | – | 23.7 µM (inactive) | 32.9 µM (inactive) | 36 µM (inactive) | 30.7 µM (inactive) | 30.5 µM (inactive) | – | 76.9 µM (inactive) | 40.5 µM (inactive) | 21.7 µM (inactive) | 25 µM (inactive) | 2.92 µM (inactive) | 40.1 µM (inactive) | 29.8 µM (inactive) | – | 3.22 µM (inactive)
7 | N#C[C@H](C(=O)c1ccccc1F)c1nc2ccccc2[nH]1 | > 100 µM (inactive) | 53 µM (inactive) | 87.9 µM (inactive) | 69.2 µM (inactive) | > 100 µM (inactive) | > 100 µM (inactive) | > 100 µM (inactive) | > 100 µM (inactive) | > 100 µM (inactive) | > 100 µM (inactive) | 82.6 µM (inactive) | 96.2 µM (inactive) | – | > 100 µM (inactive) | > 100 µM (inactive) | 85.5 µM (inactive) | 60.7 µM (inactive) | > 100 µM (inactive) | > 100 µM (inactive) | > 100 µM (inactive)
